Data on eight compounds can be found in patent publication US8629132B2, “Kinase inhibitors” (Genosco, priority 2009, dated 2014).

By inhibition is commonly meant the change of the read-out against control, counted positive when it falls. The low end stands for a response near the control, the high end for a response far below the control. By IC50 is commonly meant the concentration at which inhibition is half-maximal.

One assay deals with T1, LRRK2 (Homo sapiens, UniProt Q5S007).
T1 construct: truncated human FAK, RET, FLT3, JAK2, and LRRK2; purchased Carna Biosciences
Nature of the assay: Kinase inhibition assay: LRRK2. It counts as biochemical. The note with it: for inhibition at 1 µM: at 1 μM concentration. Here is the method:
(§1) Compounds of the present invention were tested for their capacity to inhibit a kinase panel which includes, but are not limited to, spleen tyrosine kinase (SYK), zeta-chain-associated protein kinase 70 (ZAP70), PTK2B protein tyrosine kinase 2 (PYK2), focal adhesion kinase (FAK), provirus integration of maloney kinase 1 (PIM1), rearranged during transfection kinase (RET), Fms-like tyrosine kinase 3 (FLT3), Janus kinase 2 (JAK2), and leucine-rich repeat kinase 2 (LRRK2).
(§2) Inhibition of SYK, ZAP70, PYK2, FAK, PIM1, RET, FLT3, JAK2 and LRRK2 Kinase Activity
(§3) Compounds of the invention were initially diluted to 10 mM in 100% DMSO (CALBIOCHEM™) for storage and made into kinase buffer solution to create a compound concentration ranging from 1 uM and 10 uM. Serial dilutions of compounds of the invention were dispensed into a 96-well plate (GREINER BIOSCIENCES™) at 6 μL each. Purified full-length human SYK, ZAP70, PIM1, PYK2 and truncated human FAK, RET, FLT3, JAK2, and LRRK2 (CARNA BIOSCIENCES™) were diluted in kinase buffer and added to the compound solutions and pre-incubated for 30 minutes at room temperature (1 hour for PYK2). […] The reaction mixture was incubated for 1 hour (2 hours for PYK2). Following the incubation, the stop solution made with EDTA, water, and Lance detection buffer ([…]™) was added (12μL each) to stop phosphorylation. […] The IC50 value of test compound was calculated at Gradpad Prism 5 unless specified otherwise.

For another assay, the target named is JAK2 (Homo sapiens, UniProt O60674). Put plainly: Kinase inhibition assay: JAK2. The format is biochemical. Details: truncated human FAK, RET, FLT3, JAK2, and LRRK2; purchased Carna Biosciences. Here is the method:
as §1, §2, §3

A further assay deals with T2, RET (Homo sapiens, UniProt P07949).
T2 construct: truncated human FAK, RET, FLT3, JAK2, and LRRK2; purchased Carna Biosciences
T2 sequence (P07949 658-1114 limits assumed): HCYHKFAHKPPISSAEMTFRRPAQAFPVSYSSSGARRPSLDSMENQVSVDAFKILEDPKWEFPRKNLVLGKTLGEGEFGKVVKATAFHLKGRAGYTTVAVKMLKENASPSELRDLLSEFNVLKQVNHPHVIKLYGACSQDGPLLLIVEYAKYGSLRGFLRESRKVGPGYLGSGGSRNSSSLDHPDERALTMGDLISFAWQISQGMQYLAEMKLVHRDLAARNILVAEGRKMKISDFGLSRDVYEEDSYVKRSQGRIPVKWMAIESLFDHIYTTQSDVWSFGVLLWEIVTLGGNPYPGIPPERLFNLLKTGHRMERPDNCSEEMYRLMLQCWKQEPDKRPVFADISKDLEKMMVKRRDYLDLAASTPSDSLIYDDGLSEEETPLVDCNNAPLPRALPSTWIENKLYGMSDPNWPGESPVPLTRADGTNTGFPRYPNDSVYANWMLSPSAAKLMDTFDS
Nature of the assay: Kinase inhibition assay: RET. The format is biochemical. How it is done: as §1, §2, §3

The next assay deals with HEL cells. Nature of the assay: Cell viability assay: JAK2 inhibition. The format is cell-based, human. The note with it: for IC50: Homo sapiens, 72-hour incubation, HEL cells expressing JAK2 V617F, read-out: Cell Viability: JAK2 kinase Inhibition HEL (IC50 nM). Here is the method: Compounds of the invention are tested for their effects on JAK2 inhibition in human erythroleukemic cell line (HEL) to illustrate potential efficacy at the cellular level. The Janus-associated kinase (JAK) family, comprised of four different protein tyrosine kinases JAK1, JAK2, JAK3, and TYK2, plays an important role in cellular survival, proliferation, and differentiation. V617F, a unique mutation in the JAK2 gene (a valine-to-phenylalanine substitution) results in constitutive kinase activity and promotes deregulated hematopoiesis. JAK2 V617F is frequently detected in myeloproliferative disorders (MPDs), a group of clonal hematopoietic stem cell disorders that include polycythemia vera (PV), essential thrombocythemia (ET), and idiopathic myelofibrosis (IMF), all of which have the potential to transform to acute myeloid leukemia. JAK2 V617F is constitutively phosphorylated and able to activate downstream signaling in the absence of cytokine stimulation.
Compounds of the present invention were tested for their effects on viability of HEL cells. For cell viability assay, HEL cells expressing human JAK2 V617F were obtained from the American Type Culture Collection (ATCC, Manassas, Va.). This cell line was maintained with Roswell Park Memorial Institute (RPMI) medium (HyClone™) containing 10 bovine calf serum (BCS; Hyclone™) supplemented iron. The HEL cells were seeded at 2×10^4 cells in 96 well culture plates, and serially diluted compound was then added. After a 72-hour incubation period at 37° C., viability of cells was measured using the ATPLite 1 step assay (Perkin-Elmer™) that is based on the quantification of ATP from viable cells. CellTiter Aqueous assay (Promega™) was also performed in parallel as an orthogonal assay. IC50 values were calculated using nonlinear regression and defined as the concentration needed for a 50 reduction in luminescence or absorbance treated versus untreated control cells (Prism™ Software).

A further assay addresses T3, FLT3 (Homo sapiens, UniProt P36888).
T3 construct: truncated human FAK, RET, FLT3, JAK2, and LRRK2; purchased Carna Biosciences
T3 sequence (P36888 564-993 limits assumed): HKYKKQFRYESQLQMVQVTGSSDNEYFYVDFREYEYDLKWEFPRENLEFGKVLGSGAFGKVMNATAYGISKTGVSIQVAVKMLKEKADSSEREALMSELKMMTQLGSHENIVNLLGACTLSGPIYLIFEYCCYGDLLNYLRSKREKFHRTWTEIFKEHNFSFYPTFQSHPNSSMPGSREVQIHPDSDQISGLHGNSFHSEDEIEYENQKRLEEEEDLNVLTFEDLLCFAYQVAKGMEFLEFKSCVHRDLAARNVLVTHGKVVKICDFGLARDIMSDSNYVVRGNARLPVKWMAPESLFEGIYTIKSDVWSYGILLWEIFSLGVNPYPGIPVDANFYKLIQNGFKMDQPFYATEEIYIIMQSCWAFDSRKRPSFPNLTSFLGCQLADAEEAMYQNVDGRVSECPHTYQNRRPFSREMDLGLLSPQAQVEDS
Nature of the assay: Kinase inhibition assay: FLT3. The format is biochemical. How it is done:
as §1, §2, §3

For a further assay, the system named is MV4-11 cells. Nature of the assay: Cell viability assay: FLT3-ITD-positive cells. It counts as cell-based, human. The note with it: for IC50: Homo sapiens, MV4-11, 72-hour incubation, read-out: Viability of FLT3-ITD Induced Cancer Cell Line MV-4-11 (IC50 nM). How it is done:
Compounds of the invention were tested for their effects on inhibition of FLT3-ITD in human acute leukemia cell line (MV4-11). FLT3 is primarily expressed in immature hematopoietic progenitor as well as in mature myeloid cells. It belongs to type III receptor tyrosine kinase (RTK) family including KIT, FMS, and PDGFR. It is activated by binding to FL, which leads to increased kinase activity and activation of downstream signaling pathway including STATS, Ras, and PI3Kinase.
Compounds of the invention were tested for cell viability effect on MV4-11 cells. For cell viability assay, MV4-11 cells expressing human FLT3-ITD were obtained from the American Type Culture Collection (ATCC, Manassas, Va.). This cell line was maintained with an Roswell Park Memorial Institute (RPMI) medium (HyClone™) containing 10 bovine calf serum (BCS; Hyclone™) supplemented iron. The MV4-11 cells were seeded at 2×10^4 cells in 96-well culture plates, and serially diluted compound was then added. After a 72-hour incubation period at 37° C., cell viability was measured using the ATPLite 1 step assay (Perkin-Elmer™) that is based on the quantification of ATP from viable cells. CellTiter Aqueous assay (Promega™) was also performed in parallel as an orthogonal assay. IC50 values were calculated using nonlinear regression and defined as the concentration needed for a 50 reduction in luminescence or absorbance treated versus untreated control cells (Prism™ Software).

The next assay concerns the target T4, SYK (Homo sapiens, UniProt P43405).
T4 construct: Purified full-length human SYK, ZAP70, PIM1, PYK2; purchased Carna Biosciences
Put plainly: Kinase inhibition assay: SYK. The format is biochemical. The settings on record: at 1 μM concentration. How it is done: as §1, §2, §3

The target of the next assay is T5, PYK2 (Homo sapiens, UniProt Q14289).
T5 construct: Purified full-length human SYK, ZAP70, PIM1, PYK2; purchased Carna Biosciences
Nature of the assay: Kinase inhibition assay: PYK2. It counts as biochemical. The settings on record: at 1 μM concentration. Here is the method:
as §1, §2, §3

The target of another assay is T6, FAK (Homo sapiens, UniProt Q05397).
T6 construct: truncated human FAK, RET, FLT3, JAK2, and LRRK2; purchased Carna Biosciences
Nature of the assay: Kinase inhibition assay: FAK. It counts as biochemical. The note with it: at 1 μM concentration. Here is the method: as §1, §2, §3

Structures can show the parent of a compound that is named as a salt. A value given as a limit tells only on which side of the number the result lay.

Chain of JAK2 (O60674 826-1132 limits assumed): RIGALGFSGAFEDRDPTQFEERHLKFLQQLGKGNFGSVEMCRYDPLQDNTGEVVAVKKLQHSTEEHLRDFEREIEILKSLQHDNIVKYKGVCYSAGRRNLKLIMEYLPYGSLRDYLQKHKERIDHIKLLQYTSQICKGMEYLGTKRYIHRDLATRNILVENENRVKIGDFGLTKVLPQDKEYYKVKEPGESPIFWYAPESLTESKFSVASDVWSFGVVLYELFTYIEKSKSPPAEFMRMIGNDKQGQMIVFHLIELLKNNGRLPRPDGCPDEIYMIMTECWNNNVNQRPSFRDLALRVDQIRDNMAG
T1 sequence (Q5S007 970-2527 limits assumed): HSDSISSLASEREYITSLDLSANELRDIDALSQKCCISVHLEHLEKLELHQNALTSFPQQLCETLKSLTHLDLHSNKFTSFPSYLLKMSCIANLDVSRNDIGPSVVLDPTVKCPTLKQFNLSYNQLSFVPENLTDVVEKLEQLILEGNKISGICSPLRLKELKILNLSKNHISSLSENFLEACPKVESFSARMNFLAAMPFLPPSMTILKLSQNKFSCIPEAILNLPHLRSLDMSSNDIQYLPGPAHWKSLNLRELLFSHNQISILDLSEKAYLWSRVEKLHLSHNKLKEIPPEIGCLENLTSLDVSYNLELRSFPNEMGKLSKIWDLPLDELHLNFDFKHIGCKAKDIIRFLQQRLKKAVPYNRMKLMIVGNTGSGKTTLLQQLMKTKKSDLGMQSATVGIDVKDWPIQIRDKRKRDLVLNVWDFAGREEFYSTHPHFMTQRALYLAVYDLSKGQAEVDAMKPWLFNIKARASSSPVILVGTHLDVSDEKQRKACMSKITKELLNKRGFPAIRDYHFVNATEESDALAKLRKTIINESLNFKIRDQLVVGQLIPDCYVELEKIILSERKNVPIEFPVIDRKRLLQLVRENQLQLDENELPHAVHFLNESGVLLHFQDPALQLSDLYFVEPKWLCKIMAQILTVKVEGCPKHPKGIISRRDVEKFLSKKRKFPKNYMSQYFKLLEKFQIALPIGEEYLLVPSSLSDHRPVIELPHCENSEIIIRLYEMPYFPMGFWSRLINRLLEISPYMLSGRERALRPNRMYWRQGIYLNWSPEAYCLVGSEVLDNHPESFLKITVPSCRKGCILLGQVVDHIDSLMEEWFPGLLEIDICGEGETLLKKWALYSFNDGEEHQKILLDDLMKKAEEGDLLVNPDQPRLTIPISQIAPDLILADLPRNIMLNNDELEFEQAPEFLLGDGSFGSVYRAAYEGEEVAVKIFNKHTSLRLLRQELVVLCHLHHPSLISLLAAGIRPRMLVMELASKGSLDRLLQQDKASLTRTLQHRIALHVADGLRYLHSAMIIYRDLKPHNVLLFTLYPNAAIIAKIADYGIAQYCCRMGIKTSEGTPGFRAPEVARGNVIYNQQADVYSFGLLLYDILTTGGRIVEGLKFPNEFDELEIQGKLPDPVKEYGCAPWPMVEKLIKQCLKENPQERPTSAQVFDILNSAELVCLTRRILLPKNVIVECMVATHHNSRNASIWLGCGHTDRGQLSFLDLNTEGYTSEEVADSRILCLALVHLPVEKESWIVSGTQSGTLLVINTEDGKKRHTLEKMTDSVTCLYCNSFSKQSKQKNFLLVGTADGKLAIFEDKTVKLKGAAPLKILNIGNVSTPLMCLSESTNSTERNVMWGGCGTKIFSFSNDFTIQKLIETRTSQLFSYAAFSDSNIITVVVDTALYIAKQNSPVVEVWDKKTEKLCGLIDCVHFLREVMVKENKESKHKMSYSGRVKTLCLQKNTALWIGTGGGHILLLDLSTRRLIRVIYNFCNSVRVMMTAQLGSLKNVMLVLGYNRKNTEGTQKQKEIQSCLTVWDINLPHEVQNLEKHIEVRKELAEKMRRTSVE
T6 sequence (Q05397 376-1052 limits assumed): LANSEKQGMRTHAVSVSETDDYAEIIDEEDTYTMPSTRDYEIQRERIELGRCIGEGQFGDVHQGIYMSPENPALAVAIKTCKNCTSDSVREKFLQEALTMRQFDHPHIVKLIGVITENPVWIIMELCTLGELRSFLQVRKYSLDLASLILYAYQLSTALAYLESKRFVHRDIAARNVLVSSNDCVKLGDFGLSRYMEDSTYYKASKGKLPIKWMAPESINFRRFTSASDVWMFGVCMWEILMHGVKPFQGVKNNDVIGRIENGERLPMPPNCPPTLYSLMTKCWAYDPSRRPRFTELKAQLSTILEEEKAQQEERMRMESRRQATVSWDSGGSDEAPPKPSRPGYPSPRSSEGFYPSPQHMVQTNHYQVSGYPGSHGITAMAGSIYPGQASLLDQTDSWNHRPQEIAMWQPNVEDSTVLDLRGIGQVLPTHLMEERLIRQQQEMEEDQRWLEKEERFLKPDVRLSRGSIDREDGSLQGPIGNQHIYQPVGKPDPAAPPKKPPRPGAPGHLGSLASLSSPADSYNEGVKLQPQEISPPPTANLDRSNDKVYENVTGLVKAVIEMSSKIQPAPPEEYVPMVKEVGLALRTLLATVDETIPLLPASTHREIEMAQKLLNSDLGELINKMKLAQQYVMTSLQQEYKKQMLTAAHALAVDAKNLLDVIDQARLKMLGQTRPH
T5 sequence (Q14289 whole entry): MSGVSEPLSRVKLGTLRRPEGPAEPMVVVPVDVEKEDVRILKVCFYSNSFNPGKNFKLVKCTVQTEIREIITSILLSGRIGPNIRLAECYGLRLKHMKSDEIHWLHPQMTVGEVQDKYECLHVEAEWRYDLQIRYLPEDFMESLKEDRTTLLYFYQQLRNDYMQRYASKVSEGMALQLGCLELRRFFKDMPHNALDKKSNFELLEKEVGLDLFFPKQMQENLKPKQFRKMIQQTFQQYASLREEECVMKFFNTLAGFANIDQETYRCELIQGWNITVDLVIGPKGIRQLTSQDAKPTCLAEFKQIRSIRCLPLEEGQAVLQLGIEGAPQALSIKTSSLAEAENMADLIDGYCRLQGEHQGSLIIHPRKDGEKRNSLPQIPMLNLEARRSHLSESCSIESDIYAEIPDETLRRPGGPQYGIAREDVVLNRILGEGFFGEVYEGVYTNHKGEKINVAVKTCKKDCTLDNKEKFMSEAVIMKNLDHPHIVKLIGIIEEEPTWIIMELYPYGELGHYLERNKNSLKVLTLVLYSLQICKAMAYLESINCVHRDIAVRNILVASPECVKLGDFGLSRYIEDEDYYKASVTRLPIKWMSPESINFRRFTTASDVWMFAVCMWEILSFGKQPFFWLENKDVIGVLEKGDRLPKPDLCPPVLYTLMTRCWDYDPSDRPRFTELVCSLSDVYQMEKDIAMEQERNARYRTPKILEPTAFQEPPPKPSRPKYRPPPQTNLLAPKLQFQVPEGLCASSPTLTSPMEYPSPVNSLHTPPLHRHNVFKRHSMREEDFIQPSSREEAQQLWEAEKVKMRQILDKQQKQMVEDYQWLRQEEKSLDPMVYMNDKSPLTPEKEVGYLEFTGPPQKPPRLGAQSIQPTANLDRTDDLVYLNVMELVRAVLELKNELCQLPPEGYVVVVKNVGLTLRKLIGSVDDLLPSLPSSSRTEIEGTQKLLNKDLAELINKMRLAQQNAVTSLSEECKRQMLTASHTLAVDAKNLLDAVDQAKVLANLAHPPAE

Regarding `Cc1cc(C)cc(Nc2nccc(-n3cc(C(=O)N4CC[C@@H](O)C4)c(C)n3)n2)c1` [Compound 32, (R)-(1-(2-(3,5-dimethylphenylamino)pyrimidin-4-yl)-3-methyl-1H-pyrazol-4-yl)(3-hydroxypyrrolidin-1-yl)methanone], the inhibition at 1 µM at LRRK2 is 44.3%; against JAK2 (at 1 μM concentration) it was 40%. Besides, the IC50 against RET was determined as 51.3 nM.

In the case of `Cc1cn(-c2nc(Nc3ccc(N4CC[C@H](O)C4)c(C)c3)ncc2C)cc1CO` [Compound 24, (S)-1-(4-(4-(3-(hydroxyl-methyl)-4-methyl-1H-pyrrol-1-yl)-5-methyl-pyrimidin-2-ylamino)-2-methylphenyl)pyrrolidin-3-ol], the “inhibition level compared with Sorafenib” value in the assay with HEL cells (HEL) is listed as “greater than those exhibited by Sorafenib”. Also, the half-inhibitory concentration (IC50) stood at 229 nM in the assay with HEL cells, 6.8 nM against FLT3, 1.6 nM at JAK2 and 40.4 nM at RET.

On to `COc1cc(Nc2ncc(C)c(-n3cc(C)c(CN4CC(O)C4)c3)n2)cc(OC)c1OC` [Compound 91, 1-((4-methyl-1-(5-methyl-2-(3,4,5-trimethoxyphenylamino)pyrimidin-4-yl)-1H-pyrrol-3-yl)methyl)azetidin-3-ol], for which the half-maximal inhibitory concentration (IC50) on FLT3 was 0.4 nM; against LRRK2, 424 nM; on JAK2 it was 36.5 nM; in the assay on MV4-11 cells it was 1.5 nM; at RET it was 5.2 nM. Further, the “inhibition level compared with Vandetinib and Sunitinib” value in the assay on MV4-11 cells (FLT3 ITD induced cancer cell line (MV4-11)) is “greater than those exhibited by Vandetinib and Sunitinib”.

Consider `COc1cc(Nc2ncc(C)c(-n3cc(C)c(CN4CCCN(C(=O)C(C)(C)C)CC4)c3)n2)cc(OC)c1OC` [Compound 97, 2,2-dimethyl-1-(4-((4-methyl-1-(5-methyl-2-(3,4,5-trimethoxyphenylamino)pyrimidin-4-yl)-1H-pyrrol-3-yl)methyl)-1,4-diazepan-1-yl)propan-1-one], for which the IC50 worked out at 3.6 nM against FLT3, 65.1 nM at JAK2, 79.2 nM in the assay with MV4-11 cells and 35.8 nM at RET.

Consider `COc1cc(Nc2ncc(C)c(-n3cc(C)c(CN4CCCNCC4)c3)n2)cc(OC)c1OC` [Compound 96, 4-(3-((1,4-diazepan-1-yl)methyl)-4-methyl-1H-pyrrol-1-yl)-5-methyl-N-(3,4,5-trimethoxyphenyl)pyrimidin-2-amine trihydrochloride], for which the IC50 at FLT3 stood at 0.53 nM; against JAK2, 3.9 nM; in the assay on MV4-11 cells, 12.5 nM; at RET, 10.1 nM.

For `CNC(=O)c1cc(Oc2ccc(NC(=O)Nc3ccc(Cl)c(C(F)(F)F)c3)cc2)ccn1` [Sorafenib, reference compound], the half-inhibitory concentration (IC50) in the assay with HEL cells is > 1000 nM.

Consider `Cc1cc(C)cc(Nc2nccc(-n3cc(C(=O)N(C)CCO)c(C)n3)n2)c1` [Compound 29, 1-(2-(3,5-dimethylphenylamino)pyrimidin-4-yl)-N-(2-hydroxyethyl)-N,3-dimethyl-1H-pyrazole-4-carboxamide], for which the figures for the inhibition at 1 µM against FLT3 (at 1 μM concentration), on LRRK2 and at RET (at 1 μM concentration) were 53%, 31.4% and 42%, respectively.

`Cc1cc(C)cc(Nc2nccc(-n3cc(C)c(CN4CC[C@@H](O)C4)c3)n2)c1` [Compound 41, (R)-1-((1-(2-(3,5-dimethylphenylamino)pyrimidin-4-yl)-4-methyl-1H-pyrrol-3-yl)methyl)pyrrolidin-3-ol]: the inhibition at 1 µM at SYK was determined as 99.3%; at PYK2, 30.7%; at FAK, 13.9%.
